Test results as given in publication PMC6127930 (2018).

System: oxytetracycline binding aptamer (OBA) (DNA, aptamer) CGTACGGAATTCGCTAGCACGTTGACGCTGGTGCCCGGTTGTGGTGCGAGTGTTGTGTGGATCCGAGCTCCACGTG
Test: magnetic capture, UV-Vis of unbound at 368 nm
Details: 100 mM NaCl, 5 mM KCl, 2 mM MgCl2, 1 mM CaCl2, 20 mM Tris-HCl pH 7.6, room temperature, 2 h

SMILES: COc1ccc2cc([C@H](C)C(=O)O)ccc2c1
- binding (tested at 5 µM, 9.0 ± 1.3% non-specifically adsorbed): no

SMILES: O=C(O)Cc1ccccc1Nc1c(Cl)cccc1Cl
- binding (tested at 5 µM, 8.7 ± 3.7% non-specifically adsorbed): no

SMILES: CN(C)[C@@H]1C(=O)C(C(N)=O)=C(O)[C@@]2(O)C(=O)C3=C(O)c4c(O)cccc4[C@@](C)(O)[C@H]3[C@H](O)[C@@H]12
- binding (5 µM compound, 85 ± 2.8% captured): yes
